The target of experiment [1] is Tyrosine-protein kinase Lyn (Mus musculus) (UniProt P25911). In words: Inhibition of recombinant full length mouse Lyn assessed as residual activity at 10 uM using poly(Glu, Tyr) 4:1 as substrate after 40 mins in presence of [gamma-33ATP] by scintillation counting based radiometry assay relative to control.
For experiment [2], the system named is Receptor tyrosine-protein kinase erbB-2 (Homo sapiens), P04626 [G778D]. In words: Inhibition of recombinant human ERBB2 G778D mutant (676 to end residues) assessed as residual activity at 10 uM using poly(Glu, Tyr) 4:1 as substrate at 40 mins in presence of [gamma-33ATP] by scintillation counting based radiometry assay relative to control.
The target of experiment [3] is Serine/threonine-protein kinase ULK3 (Homo sapiens) (UniProt Q6PHR2). Put plainly: Inhibition of recombinant human full length ULK3 assessed as residual activity at 10 uM using casein as substrate incubated for 40 mins in presence of [gamma33P]ATP by scintillation counting based radiometry assay relative to control.
Experiment [4] addresses Serine/threonine-protein kinase 32A (Homo sapiens) (UniProt Q8WU08). In words: Inhibition of recombinant human full length STK32A assessed as residual activity at 10 uM using casein as substrate incubated for 40 mins in presence of [gamma33P]ATP by scintillation counting based radiometry assay relative to control.
Experiment [5] has as its target Tyrosine-protein kinase JAK3 (Homo sapiens) (UniProt P52333). In words: Inhibition of human JAK3 (781 to end residues) assessed as residual activity at 10 uM using GGEEEEYFELVKKKK as substrate after 40 mins by [gamma-33ATP] radiometric assay relative to control.
Experiment [6] deals with Serine/threonine-protein kinase PRP4 homolog (Homo sapiens) (UniProt Q13523). In words: Inhibition of recombinant human PRP4 (663 to end residues) assessed as residual activity at 10 uM using casein as substrate incubated for 40 mins in presence of [gamma33P]ATP by scintillation counting based radiometry assay relative to control.
Experiment [7] addresses Mitogen-activated protein kinase kinase kinase 20 (Homo sapiens) (UniProt Q9NYL2). In words: Inhibition of recombinant full-length human ZAK assessed as residual activity at 10 uM using MBP as substrate incubated for 40 mins in presence of [gamma33P]ATP by scintillation counting based radiometry assay relative to control.
Experiment [8] concerns the target Ephrin type-A receptor 2 (Homo sapiens) (UniProt P29317). In words: Inhibition of recombinant human EphA2 (596 to 900 residues) assessed as residual activity at 10 uM using poly(Glu, Tyr) 4:1 as substrate at 40 mins in presence of [gamma-33ATP] by scintillation counting based radiometry assay relative to control.
The test system of a further experiment is A549. In words: Inhibition of hippo signalling protein in human A549 cells cotransfected with CTGF promoter-driven firefly luciferase and CMV promoter-driven renilla luciferase gene assessed as increase in CTGF expression at 10 uM incubated for 24 hrs by dual-luciferase gene assay relative to control.
The target of experiment [9] is Death-associated protein kinase 2 (Homo sapiens) (UniProt Q9UIK4). Put plainly: Inhibition of recombinant full length human DAPK2 assessed as residual activity at 10 uM Calmodulin as substrate incubated 40 mins in presence of [gamma-33ATP] by scintillation counting based radiometry assay relative to control.
The target in experiment [10] is Mitogen-activated protein kinase kinase kinase 11 (Homo sapiens) (UniProt Q16584). In words: Inhibition of recombinant human MLK3 assessed as residual activity at 10 uM using by scintillation counting based radiometry assay relative to control.
For experiment [11], the system named is Serine/threonine-protein kinase Sgk1 (Homo sapiens), O00141 [S422D]. Put plainly: Inhibition of recombinant human SGK S422D mutant (60 to end residues) assessed as residual activity at 10 uM using GRPRTSSFAEGKK as substrate incubated for 40 mins in presence of [gamma33P]ATP by scintillation counting based radiometry assay relative to control.
Experiment [12] deals with Protein kinase C eta type (Homo sapiens), P24723 [UNDEFINED MUTATION]. Put plainly: Inhibition of recombinant human PKCeta V108L/G109R/L392Q mutant (2 to end residues) assessed as residual activity at 10 uM using ERMRPRKRQGSVRRRV as substrate incubated for 40 mins in presence of [gamma33P]ATP by scintillation counting based radiometry assay relative to control.
In experiment [13] the target is High affinity nerve growth factor receptor (Homo sapiens) (UniProt P04629). In words: Inhibition of recombinant human TRKA (440 to end residues) assessed as residual activity at 10 uM using KKKSPGEYVNIEF as substrate incubated for 40 mins in presence of [gamma33P]ATP by scintillation counting based radiometry assay relative to control.
Experiment [14] addresses Serine/threonine-protein kinase WNK2 (Homo sapiens) (UniProt Q9Y3S1). In words: Inhibition of recombinant human WNK2 (166 to 489 residues) assessed as residual activity at 10 uM using myelin basic protein as substrate incubated for 40 mins in presence of [gamma33P]ATP by scintillation counting based radiometry assay relative to control.
Experiment [15] has as its system Discoidin domain-containing receptor 2 (Homo sapiens), Q16832 [UNDEFINED MUTATION]. Put plainly: Inhibition of recombinant human DDR2 S642A mutant (467 to end residues) assessed as residual activity at 10 uM using KKSRGDYMTMQIG as substrate at 40 mins in presence of [gamma-33ATP] by scintillation counting based radiometry assay relative to control.
Experiment [16] deals with TGF-beta receptor type-1 (Homo sapiens), P36897 [T204D]. Put plainly: Inhibition of recombinant human TGFBR1 T204D mutant (200 to end residues) assessed as residual activity at 10 uM using casein as substrate incubated for 40 mins in presence of [gamma33P]ATP by scintillation counting based radiometry assay relative to control.
In experiment [17] the target is Homeodomain-interacting protein kinase 2 (Homo sapiens) (UniProt Q9H2X6). Put plainly: Inhibition of human HIPK2 (165 to 564 residues) assessed as residual activity at 10 uM using myelin basic protein as substrate after 40 mins by [gamma-33ATP] radiometric assay relative to control.
In experiment [18] the target is Ephrin type-B receptor 3 (Homo sapiens) (UniProt P54753). Put plainly: Inhibition of recombinant human EphB3 (599 to 920 residues) assessed as residual activity at 10 uM using poly(Glu, Tyr) 4:1 as substrate at 40 mins in presence of [gamma-33ATP] by scintillation counting based radiometry assay relative to control.
The test system of experiment [19] is Epidermal growth factor receptor (Homo sapiens), P00533 [L858R]. Put plainly: Inhibition of recombinant human EGFR L858R mutant (696 to end residues) assessed as residual activity at 10 uM using poly(Glu, Tyr) 4:1 as substrate at 40 mins in presence of [gamma-33ATP] by scintillation counting based radiometry assay relative to control.
The target in experiment [20] is Receptor-interacting serine/threonine-protein kinase 1 (Homo sapiens) (UniProt Q13546). In words: Inhibition of recombinant human RIPK1 (8 to 322 residues) assessed as residual activity at 10 uM using myelin basic protein as substrate incubated for 40 mins in presence of [gamma33P]ATP by scintillation counting based radiometry assay relative to control.
Receptor-interacting serine/threonine-protein kinase 1 (Homo sapiens), sequence (Q13546 whole entry, the tested form may be a part): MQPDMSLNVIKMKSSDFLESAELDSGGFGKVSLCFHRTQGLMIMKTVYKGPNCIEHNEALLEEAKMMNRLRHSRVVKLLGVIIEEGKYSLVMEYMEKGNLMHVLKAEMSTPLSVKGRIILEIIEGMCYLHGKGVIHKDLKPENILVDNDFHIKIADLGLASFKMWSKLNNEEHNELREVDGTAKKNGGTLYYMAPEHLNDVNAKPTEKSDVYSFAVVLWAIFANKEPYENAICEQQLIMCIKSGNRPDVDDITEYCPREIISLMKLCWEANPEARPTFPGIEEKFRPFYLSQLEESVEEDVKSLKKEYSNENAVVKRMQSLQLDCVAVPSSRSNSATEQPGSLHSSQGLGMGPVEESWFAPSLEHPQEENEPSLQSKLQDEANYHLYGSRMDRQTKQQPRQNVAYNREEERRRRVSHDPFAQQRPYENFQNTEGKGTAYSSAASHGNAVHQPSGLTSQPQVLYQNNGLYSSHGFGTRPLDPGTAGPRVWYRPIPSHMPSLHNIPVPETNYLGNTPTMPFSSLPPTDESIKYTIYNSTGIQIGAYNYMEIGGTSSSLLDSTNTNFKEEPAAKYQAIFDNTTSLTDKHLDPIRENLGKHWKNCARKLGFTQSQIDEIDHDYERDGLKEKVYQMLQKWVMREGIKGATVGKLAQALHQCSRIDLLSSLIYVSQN

Protein kinase C eta type (Homo sapiens), P24723 [UNDEFINED MUTATION], sequence (P24723 whole entry, looked up, stated change not applied): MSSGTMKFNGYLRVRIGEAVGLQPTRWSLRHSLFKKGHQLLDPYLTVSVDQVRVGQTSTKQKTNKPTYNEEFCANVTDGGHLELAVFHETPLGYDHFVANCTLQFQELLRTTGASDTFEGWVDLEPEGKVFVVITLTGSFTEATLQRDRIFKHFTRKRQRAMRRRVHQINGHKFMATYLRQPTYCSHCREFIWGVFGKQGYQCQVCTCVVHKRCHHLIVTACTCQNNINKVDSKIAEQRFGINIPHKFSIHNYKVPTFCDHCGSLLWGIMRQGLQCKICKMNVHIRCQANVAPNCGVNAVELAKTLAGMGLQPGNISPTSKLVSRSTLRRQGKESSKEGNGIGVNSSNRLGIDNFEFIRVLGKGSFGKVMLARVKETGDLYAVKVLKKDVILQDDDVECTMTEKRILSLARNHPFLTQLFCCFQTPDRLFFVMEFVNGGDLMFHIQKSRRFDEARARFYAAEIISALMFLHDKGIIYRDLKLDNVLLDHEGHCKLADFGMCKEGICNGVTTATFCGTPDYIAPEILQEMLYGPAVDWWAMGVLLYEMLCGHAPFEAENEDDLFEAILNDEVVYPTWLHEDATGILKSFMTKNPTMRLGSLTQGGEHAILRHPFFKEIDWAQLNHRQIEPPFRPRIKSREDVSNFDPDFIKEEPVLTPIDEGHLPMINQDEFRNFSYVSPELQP
Serine/threonine-protein kinase Sgk1 (Homo sapiens), O00141 [S422D], sequence (O00141 whole entry S422D): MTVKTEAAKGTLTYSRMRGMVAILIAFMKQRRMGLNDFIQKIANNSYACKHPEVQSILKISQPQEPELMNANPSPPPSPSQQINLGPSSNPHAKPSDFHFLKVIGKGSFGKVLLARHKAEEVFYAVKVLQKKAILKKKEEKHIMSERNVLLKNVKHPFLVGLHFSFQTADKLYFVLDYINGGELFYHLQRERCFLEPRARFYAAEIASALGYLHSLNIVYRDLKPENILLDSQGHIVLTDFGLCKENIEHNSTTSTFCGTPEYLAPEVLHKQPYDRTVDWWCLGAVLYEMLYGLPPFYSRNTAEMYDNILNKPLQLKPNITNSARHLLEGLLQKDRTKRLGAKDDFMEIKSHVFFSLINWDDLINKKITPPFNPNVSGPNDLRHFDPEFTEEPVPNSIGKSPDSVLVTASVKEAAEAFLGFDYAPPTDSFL
High affinity nerve growth factor receptor (Homo sapiens), sequence (P04629 33-796 limits assumed): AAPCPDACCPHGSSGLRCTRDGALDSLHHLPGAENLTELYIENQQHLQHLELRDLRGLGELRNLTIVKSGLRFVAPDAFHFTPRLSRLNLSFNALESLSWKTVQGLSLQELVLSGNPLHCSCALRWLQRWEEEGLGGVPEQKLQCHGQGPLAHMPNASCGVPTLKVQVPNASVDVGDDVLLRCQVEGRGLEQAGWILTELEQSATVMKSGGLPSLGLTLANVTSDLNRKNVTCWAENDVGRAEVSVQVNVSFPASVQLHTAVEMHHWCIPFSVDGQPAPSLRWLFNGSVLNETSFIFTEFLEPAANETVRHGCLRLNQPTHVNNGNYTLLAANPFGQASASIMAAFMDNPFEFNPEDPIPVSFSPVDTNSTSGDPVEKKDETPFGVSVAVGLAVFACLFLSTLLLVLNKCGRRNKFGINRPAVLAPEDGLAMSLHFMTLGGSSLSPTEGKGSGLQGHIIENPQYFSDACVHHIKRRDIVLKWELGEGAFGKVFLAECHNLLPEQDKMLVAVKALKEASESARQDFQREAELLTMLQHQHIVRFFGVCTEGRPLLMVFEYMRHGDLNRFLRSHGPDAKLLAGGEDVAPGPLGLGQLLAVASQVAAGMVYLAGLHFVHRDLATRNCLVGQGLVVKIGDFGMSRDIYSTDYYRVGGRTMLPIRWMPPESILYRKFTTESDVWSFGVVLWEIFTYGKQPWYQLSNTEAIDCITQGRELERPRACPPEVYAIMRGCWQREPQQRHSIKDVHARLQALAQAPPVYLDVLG
Homeodomain-interacting protein kinase 2 (Homo sapiens), sequence (Q9H2X6 whole entry, looked up, the tested form may be a part): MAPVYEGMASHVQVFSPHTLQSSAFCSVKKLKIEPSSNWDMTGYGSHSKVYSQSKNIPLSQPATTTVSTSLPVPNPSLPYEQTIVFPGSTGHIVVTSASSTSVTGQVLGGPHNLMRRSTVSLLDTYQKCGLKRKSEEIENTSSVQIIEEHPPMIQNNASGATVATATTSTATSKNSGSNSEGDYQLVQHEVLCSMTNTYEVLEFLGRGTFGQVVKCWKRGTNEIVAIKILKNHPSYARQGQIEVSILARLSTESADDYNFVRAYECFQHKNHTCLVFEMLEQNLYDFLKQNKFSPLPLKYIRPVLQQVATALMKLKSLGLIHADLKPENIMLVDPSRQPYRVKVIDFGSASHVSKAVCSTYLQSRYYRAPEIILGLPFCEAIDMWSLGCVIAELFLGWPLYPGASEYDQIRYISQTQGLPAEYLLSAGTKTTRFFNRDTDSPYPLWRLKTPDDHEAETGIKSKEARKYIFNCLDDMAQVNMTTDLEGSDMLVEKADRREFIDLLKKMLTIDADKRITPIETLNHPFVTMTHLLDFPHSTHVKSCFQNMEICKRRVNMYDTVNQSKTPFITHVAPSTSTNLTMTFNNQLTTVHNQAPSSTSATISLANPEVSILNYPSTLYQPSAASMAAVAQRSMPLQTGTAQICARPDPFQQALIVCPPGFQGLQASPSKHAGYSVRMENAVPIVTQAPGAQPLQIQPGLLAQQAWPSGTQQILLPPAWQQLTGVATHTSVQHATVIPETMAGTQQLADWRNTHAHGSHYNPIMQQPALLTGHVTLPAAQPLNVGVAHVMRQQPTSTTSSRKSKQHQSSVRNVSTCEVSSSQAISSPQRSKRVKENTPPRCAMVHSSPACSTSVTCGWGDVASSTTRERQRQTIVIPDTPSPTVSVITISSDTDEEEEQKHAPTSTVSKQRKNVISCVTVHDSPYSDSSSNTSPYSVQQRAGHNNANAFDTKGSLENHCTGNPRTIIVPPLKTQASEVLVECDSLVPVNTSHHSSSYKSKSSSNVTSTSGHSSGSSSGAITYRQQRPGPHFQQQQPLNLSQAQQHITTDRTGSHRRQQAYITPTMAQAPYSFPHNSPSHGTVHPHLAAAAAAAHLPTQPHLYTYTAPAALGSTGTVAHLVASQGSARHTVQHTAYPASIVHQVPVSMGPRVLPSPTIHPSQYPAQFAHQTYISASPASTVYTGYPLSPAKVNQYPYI
Tyrosine-protein kinase JAK3 (Homo sapiens), sequence (P52333 whole entry): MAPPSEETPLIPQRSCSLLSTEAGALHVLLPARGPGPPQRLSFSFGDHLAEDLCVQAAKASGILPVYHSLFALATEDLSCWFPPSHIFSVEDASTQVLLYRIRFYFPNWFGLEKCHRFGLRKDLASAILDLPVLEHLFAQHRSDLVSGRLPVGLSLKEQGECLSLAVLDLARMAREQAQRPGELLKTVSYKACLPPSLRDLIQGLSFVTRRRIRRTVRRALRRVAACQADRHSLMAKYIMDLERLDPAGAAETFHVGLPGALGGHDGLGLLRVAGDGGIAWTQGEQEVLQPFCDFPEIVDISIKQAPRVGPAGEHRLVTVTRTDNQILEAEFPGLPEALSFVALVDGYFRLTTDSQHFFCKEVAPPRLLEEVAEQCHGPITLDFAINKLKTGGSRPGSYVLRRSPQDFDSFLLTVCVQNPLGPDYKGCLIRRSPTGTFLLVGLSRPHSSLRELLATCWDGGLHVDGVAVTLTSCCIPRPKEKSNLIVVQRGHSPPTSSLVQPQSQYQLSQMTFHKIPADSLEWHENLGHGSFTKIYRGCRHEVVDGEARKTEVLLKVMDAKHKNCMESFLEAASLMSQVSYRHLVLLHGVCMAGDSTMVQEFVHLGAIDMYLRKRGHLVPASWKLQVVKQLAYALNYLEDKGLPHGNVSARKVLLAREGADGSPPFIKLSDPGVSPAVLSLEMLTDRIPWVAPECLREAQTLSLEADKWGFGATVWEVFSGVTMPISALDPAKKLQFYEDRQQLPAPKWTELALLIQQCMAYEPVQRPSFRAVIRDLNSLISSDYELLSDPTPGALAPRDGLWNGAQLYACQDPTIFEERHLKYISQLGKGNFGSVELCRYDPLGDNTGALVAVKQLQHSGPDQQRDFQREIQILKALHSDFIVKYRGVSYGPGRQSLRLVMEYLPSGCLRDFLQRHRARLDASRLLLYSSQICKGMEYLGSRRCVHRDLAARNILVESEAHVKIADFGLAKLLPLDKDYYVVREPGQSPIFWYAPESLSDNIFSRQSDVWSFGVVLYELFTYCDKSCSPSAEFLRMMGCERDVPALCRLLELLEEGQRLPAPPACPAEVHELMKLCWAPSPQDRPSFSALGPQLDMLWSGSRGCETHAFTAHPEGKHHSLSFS

As for `C[C@@H](c1ccccc1)n1nnc2cnc3ccc(-c4cnc5[nH]ccc5c4)cc3c21`, the Activity in experiment [1] stood at 3%; in experiment [2], 120%; in experiment [3], 94%; in experiment [4] it was 95%; in experiment [5], 43%; in [6] it was 86%. Besides, the Activity came to 8% in experiment [7]; 68% in experiment [8]; 89% in experiment [9]; 73% in experiment [10]; 52% in [11]; 82% in [12]. Besides, the Activity in [13] was 5%; in [14] it was 85%; in experiment [15], 35%; in experiment [16], 97%; in [17], 93%; in experiment [18], 123%. Also, the values for the Activity in [19] and in experiment [20] were 40% and 98%, respectively. In addition, the fold change (FC) with A549 was 13.5.

For the origin of these results see ChEMBL document CHEMBL4334471, “Discovery of 1,8-disubstituted-[1,2,3]triazolo[4,5-c]quinoline derivatives as a new class of Hippo signaling pathway inhibitors” (Bioorg Med Chem Lett, 2019).
